From patent publication US8895242B2, “Single molecule nucleic acid nanoparticles” (The Regents of the University of California, priority 2009, dated 2014)

Columns and labels:
[1] = tested on: cells; test: Doxorubicin toxicity to cells with and without untargeted DNA particles; assay type: cell-based
Procedure: The IC50 was determined to be 0.1 μg of Doxo for […]. […] Targeted DNA particles may be selected or a targeting moiety added. (2) At the same time, DNA nanoparticles absorbed Doxo, which is good for our purpose of loading DNA with drugs (FIG. 45).

[2] = tested on: DNA nanoparticles; test: Doxorubicin fluorescence quenching on DNA nanoparticles; details: indicates doxorubicin binding to the particles
Excerpt: With increasing concentration of Doxorubicin, the DNA nanoparticles become saturated and free Doxorubicin in solution can fluoresce.
The fluorescence of doxorubicin is quenched with the addition of DNA nanoparticles, indicating doxorubicin binding to the particles (FIG. 44).

[3] = tested on: B16 melanoma; test: Intra-tumoral injection into B16 melanoma, immunohistochemistry of immune cell recruitment; assay type: in vivo, mice
Procedure: FIG. 23 provides data relating to Hp-91(270 μg), pI:C (125 μg), or Pam3Cys (125 μg) injected into B16 melanoma and the mice were sacrificed 24 h after the injection. The tumor was embedded in OCT and frozen sections were stained for Mac 1 (macrophages), CD11c (DCs), and CD3 (T cells) by immuno-histochemistry. Pictures were taken in brightfield at 20×.
In certain subsets of breast tumors the presence of tumor-associated macrophages is associated with […]. Thus, in order to maximize the anti-tumor immune response we tested two TLR agonists; pI:C (TLR3 agonist) and Pam3Cys (TLR2 agonist), and our immunostimulatory peptides for their ability to recruit immune cells to the tumor. Hp-91, pI:C, or Pam3Cys were injected into B16 melanoma, the mice were sacrificed 24 h after the injection and the tumor was frozen and sections stained for the indicated markers. […] This is a very promising result as Hp-91 will not only contribute to the recruitment of DCs, but also mature the arriving DCs. Thus in the context of antigen release by concurrent local cytotoxic therapy, we expect to create a very favorable environment for the uptake of tumor antigen by DCs and their subsequent activation. In addition, CD8 T cells after being primed in the draining lymph nodes are expected to be recruited in higher numbers to the tumor site via the peptide leading to a strong immune response and tumor killing.

[4] = tested on: pancreatic cancer cell line panc02; test: Flow cytometry binding of DNA nanoparticle clones to panc02; assay type: cell-based, mouse; details: fluorescently labeled
Excerpt: FIGS. 57A and 57B summarizes the results of the selection of pancreatic cancer cell line panc02 targeting particles. The mouse pancreatic lines panc02 was panned with a single module DNA nanoparticle library. After the 3rd and 4th round, the selected pool was fluorescently labeled and tested on the target cells by flow cytometry (FIG. 57A). A shift indicating enrichment of binding clones was observed. After the 5th and 6th round, clones were generated from the selected pool and sequenced (TABLE 6). 10 of the 12 sequenced clones contained a specific sequence motif: AATGGGGCG (SEQ ID NO:12). In two of the clones the motif appears in the same frame (C45 and C58). Two independent clones for each we recovered with the sequence of clone 40 and 46.

[5] = Hp-91 270 μg, pI:C 125 μg, Pam3Cys 125 μg, 24 h after injection
[6] = higher dose 500 μg, data not shown

Question: Which results are given for `COc1cccc2c1C(=O)c1c(O)c3c(c(O)c1C2=O)C[C@@](O)(C(=O)CO)C[C@@H]3O[C@H]1C[C@H](N)[C@H](O)[C@H](C)O1` [Doxo, Doxorubicin]?
Answer: IC50 [1]: 0.1 µg; doxorubicin fluorescence on addition of DNA nanoparticles ([2]; listed as Doxorubicin): fluorescence is quenched; doxorubicin fluorescence on addition of DNA nanoparticles ([2]; listed as doxorubicin): quenched

Question: What does the source list for `CCCCCCCCCCCCCCCC(=O)N[C@@H](CSC[C@@H](COC(=O)CCCCCCCCCCCCCCC)OC(=O)CCCCCCCCCCCCCCC)C(=O)O` [Pam3Cys]?
Answer: recruitment of DCs (CD11c+) into the tumor [3, 5]: only Hp-91; recruitment of T cells (CD3+) into the tumor [3, 5]: only Hp-91; recruitment of macrophages into the tumor [3, 5]: caused recruitment of macrophages; DC recruitment into the tumor [3, 6]: no T cell and DC recruitment; T cell recruitment into the tumor [3, 6]: no T cell

B1: C21: panc02-selection clone lacking the … motif, SEQ ID NO:10 (nucleic acid)
DNA: TGCTTTTTGGAACTCCTGCTAGACGTTAGATGTATCTGACCTTACGACTTCAACTTCCTTCTAAATCTGCCCACAACGATGGTGACGTTGAGTTGGATCC
modifications: DNA, backbone and methylation of C not given here; rolling circle concatemer folded into DNA nanoparticle
Question: With B1 as the molecule, how does the “binding to panc02” value [4] read?
Answer: Its value is “do not”.

B2: C50: panc02-selection clone lacking the … motif, SEQ ID NO:11 (nucleic acid)
DNA: TGCTTTTTGGAACTCCTGCTCAACTTGTGTCCTCTTGAAAGAGTCGGTCATACCTATAAGAATACTTTTATACAGCCAAAGGTGACGTTGAGTTGGATCC
modifications: DNA, backbone and methylation of C not given here; rolling circle concatemer folded into DNA nanoparticle
Question: Which “binding to panc02” value [4] does the source give for B2 here?
Answer: The value was “do not”.
